Numbers after ± are expanded uncertainties.
Assay: molar enthalpy of vaporization or sublimation
Settings: 298 K; Liquid; Chromatographic retention time

Which molar enthalpy does the source give for `CCCCCCCCCCCCCCCCCCCC` [eicosane] here?
Its molar enthalpy is 24.833 ± 0.0239 kcal/mol.

With `CCCCCCCCCCCCCCCCCCCC(=O)OC` [methyl eicosanoate] as the molecule, how does the molar enthalpy read?
Its molar enthalpy is 26.554 ± 0.0239 kcal/mol.

Which molar enthalpy does the source give for `CCCCCCCCOC(=O)c1ccccc1C(=O)OCCCCCCCC` [dioctyl 1,2-benzenedicarboxylate] here?
The molar enthalpy was 29.33 ± 0.0478 kcal/mol.

For `CCCCC(CC)COC(=O)c1ccccc1C(=O)OCC(CC)CCCC` (configuration not stated) [bis(2-ethylhexyl) 1,2-benzenedicarboxylate], which molar enthalpy is on record?
Its molar enthalpy is 27.94 ± 0.0239 kcal/mol.

Which molar enthalpy does the source give for `CCCCCCCCCCCCCCCCCCCCCCCCCCCC` [octacosane] here?
The molar enthalpy was 30.74 ± 0.12 kcal/mol.

For `CCCCCCCCCCCCCCCC(=O)OC` [methyl hexadecanoate], which molar enthalpy is on record?
Its molar enthalpy is 24.331 ± 0.0239 kcal/mol.

Which molar enthalpy does the source give for `CCCCCCCCCCCCCCCCCCCCCCCCCC` [hexacosane] here?
Its molar enthalpy is 29.16 ± 0.239 kcal/mol.

Which molar enthalpy does the source give for `CCCCCCCCCCCCCCCCCC(=O)OC` [methyl octadecanoate] here?
The molar enthalpy was 25.789 ± 0.0239 kcal/mol.

With `CCCCCCCCCCCCCCCCCCCCCC` [docosane] as the molecule, how does the molar enthalpy read?
The molar enthalpy was 26.29 ± 0.239 kcal/mol.

Which molar enthalpy does the source give for `COC(=O)c1ccccc1C(=O)OC` [dimethyl 1,2-benzenedicarboxylate] here?
The molar enthalpy was 20.12 ± 0.0239 kcal/mol.

Which molar enthalpy does the source give for `CCCCOC(=O)c1ccccc1C(=O)OCCCC` [dibutyl phthalate] here?
Its molar enthalpy is 23.73 ± 0.0239 kcal/mol.

Which molar enthalpy does the source give for `CCCCOC(=O)c1ccccc1C(=O)OCc1ccccc1` [benzyl butyl 1,2-benzenedioate] here?
The molar enthalpy was 26.24 ± 0.0478 kcal/mol.

With `CCCCCCCCCCCCCCCCCCCCCCCCC` [pentacosane] as the molecule, how does the molar enthalpy read?
The molar enthalpy was 28.466 ± 0.0239 kcal/mol.

Which molar enthalpy does the source give for `CCCCCCCCCCCCCCCCCCCCCCCC` [tetracosane] here?
The molar enthalpy was 27.749 ± 0.0239 kcal/mol.

With `CCCCCCCCCCCCCCCCCC(=O)OCC` [ethyl octadecanoate] as the molecule, how does the molar enthalpy read?
The molar enthalpy was 26.12 ± 0.12 kcal/mol.

Which molar enthalpy does the source give for `CCCCCCCCCCCCCCCCCCCCC(=O)OC` [methyl heneicosanoate] here?
The molar enthalpy was 27.796 ± 0.0239 kcal/mol.

For `CCOC(=O)c1ccccc1C(=O)OCC` [diethyl phthalate], which molar enthalpy is on record?
The molar enthalpy was 21.18 ± 0.0239 kcal/mol.

— the NIST ThermoML archive (doi:10.1021/acs.jced.5b00444)
